Source: ChEMBL document CHEMBL1148080, “Identification of an activator of the retinoid X receptor” (J Nat Prod, 1994)
The source made the active and inactive calls. The rule behind the calls is not given here.

Target: T1, Retinoic acid receptor alpha (Homo sapiens) (UniProt P10276)
T1 sequence (whole entry): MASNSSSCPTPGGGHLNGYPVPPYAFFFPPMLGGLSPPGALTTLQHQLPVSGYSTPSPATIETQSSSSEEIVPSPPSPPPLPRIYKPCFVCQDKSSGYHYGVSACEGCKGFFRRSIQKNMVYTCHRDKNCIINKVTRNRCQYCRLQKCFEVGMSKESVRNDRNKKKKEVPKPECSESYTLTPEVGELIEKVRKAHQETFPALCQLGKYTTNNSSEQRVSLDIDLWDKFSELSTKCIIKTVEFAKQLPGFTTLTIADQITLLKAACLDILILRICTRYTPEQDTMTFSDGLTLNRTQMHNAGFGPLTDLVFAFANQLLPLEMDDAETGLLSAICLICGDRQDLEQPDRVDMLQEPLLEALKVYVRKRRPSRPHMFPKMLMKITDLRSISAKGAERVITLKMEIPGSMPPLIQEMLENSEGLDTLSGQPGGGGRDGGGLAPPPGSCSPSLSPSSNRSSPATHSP
Assay: Transactivation of RARalpha expressed in mammalian cells assessed as effect on palindromic thyroid hormone response element-driven transcriptional activation by luciferase reporter gene assay
Type: cell-based

Activity: Active
Structure (SMILES): CC1=C(/C=C/C(C)=C\C=C\C(C)=C\C(=O)O[C@@H]2O[C@H](CO)[C@@H](O)[C@H](O)[C@H]2O)C(C)(C)CCC1
